Measured values: the kinase profiling compilation of Christmann-Franck et al. (2016)

How the values were obtained:
Assay in all cases: KINOMEscan competition binding
[1] = target: AURKA (human) (UniProt O14965)
[2] = target: KIT (human) (UniProt P10721)
[3] = system: EGFR (human), P00533 [L858R]
[4] = target: DDR1 (human) (UniProt Q08345)
[5] = target: MYLK (human) (UniProt Q15746)
[6] = target: ADCK3 (human) (UniProt Q8NI60)
[7] = target: ACVR2A (human) (UniProt P27037)
[8] = system: KIT (human), P10721 [D816V]
[9] = target: MST1R (human) (UniProt Q04912)
[10] = target: MYO3B (human) (UniProt Q8WXR4)
[11] = target: MAP3K5 (human) (UniProt Q99683)
[12] = target: PIP4K2B (human) (UniProt P78356)
[13] = target: MAST1 (human) (UniProt Q9Y2H9)
[14] = target: EIF2AK2 (human) (UniProt P19525)
[15] = target: FGFR4 (human) (UniProt P22455)
[16] = system: EGFR (human), P00533 [P753S; 747-752 del]
[17] = target: JAK1 JH2 pseudokinase (human) (UniProt P23458)
[18] = target: PTK6 (human) (UniProt Q13882)
[19] = target: PIM3 (human) (UniProt Q86V86)
[20] = system: PIK3CA (human), P42336 [E545A]
[21] = system: FLT3 (human), P36888 [D835H]
[22] = target: CDK19 (human) (UniProt Q9BWU1)
[23] = system: CPK1 (P.falciparum)
[24] = target: MAP4K5 (human) (UniProt Q9Y4K4)
[25] = system: FLT3 (human), P36888 [N841I]
[26] = system: FLT3 (human), P36888 [D835Y]
[27] = target: MERTK (human) (UniProt Q12866)
[28] = target: NTRK1 (human) (UniProt P04629)
[29] = target: DAPK2 (human) (UniProt Q9UIK4)
[30] = target: CAMK4 (human) (UniProt Q16566)
[31] = target: CLK1 (human) (UniProt P49759)
[32] = system: RET (human), P07949 [V804L]
[33] = target: PAK6 (human) (UniProt Q9NQU5)
[34] = system: EGFR (human), P00533 [T790M]
[35] = target: NEK11 (human) (UniProt Q8NG66)
[36] = target: MAPK14 (human) (UniProt Q16539)
[37] = target: MAP3K3 (human) (UniProt Q99759)
[38] = target: FLT1 (human) (UniProt P17948)
[39] = target: SIK3 (human) (UniProt Q9Y2K2)
[40] = target: LRRK2 (human) (UniProt Q5S007)
[41] = system: LRRK2 (human), Q5S007 [G2019S]
[42] = system: PIK3CA (human), P42336 [H1047L]
[43] = system: PIK3CA (human), P42336 [M1043I]

EIF2AK2 (human), sequence (P19525 whole entry, looked up): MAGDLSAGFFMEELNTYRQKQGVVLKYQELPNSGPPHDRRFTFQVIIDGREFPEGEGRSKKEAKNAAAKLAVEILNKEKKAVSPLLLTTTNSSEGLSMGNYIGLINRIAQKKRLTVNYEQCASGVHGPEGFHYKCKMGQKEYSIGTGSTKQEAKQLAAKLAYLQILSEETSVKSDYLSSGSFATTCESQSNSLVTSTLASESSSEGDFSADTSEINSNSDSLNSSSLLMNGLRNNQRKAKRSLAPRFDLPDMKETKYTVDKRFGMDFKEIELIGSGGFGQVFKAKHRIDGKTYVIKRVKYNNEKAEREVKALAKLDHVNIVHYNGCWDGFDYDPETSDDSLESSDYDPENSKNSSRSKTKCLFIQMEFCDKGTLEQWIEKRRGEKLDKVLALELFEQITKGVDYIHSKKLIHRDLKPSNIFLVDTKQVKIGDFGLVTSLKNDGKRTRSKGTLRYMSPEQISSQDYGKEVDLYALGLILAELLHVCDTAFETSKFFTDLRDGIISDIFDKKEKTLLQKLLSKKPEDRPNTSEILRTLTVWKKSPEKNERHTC
MAP3K3 (human), sequence (Q99759 whole entry, looked up): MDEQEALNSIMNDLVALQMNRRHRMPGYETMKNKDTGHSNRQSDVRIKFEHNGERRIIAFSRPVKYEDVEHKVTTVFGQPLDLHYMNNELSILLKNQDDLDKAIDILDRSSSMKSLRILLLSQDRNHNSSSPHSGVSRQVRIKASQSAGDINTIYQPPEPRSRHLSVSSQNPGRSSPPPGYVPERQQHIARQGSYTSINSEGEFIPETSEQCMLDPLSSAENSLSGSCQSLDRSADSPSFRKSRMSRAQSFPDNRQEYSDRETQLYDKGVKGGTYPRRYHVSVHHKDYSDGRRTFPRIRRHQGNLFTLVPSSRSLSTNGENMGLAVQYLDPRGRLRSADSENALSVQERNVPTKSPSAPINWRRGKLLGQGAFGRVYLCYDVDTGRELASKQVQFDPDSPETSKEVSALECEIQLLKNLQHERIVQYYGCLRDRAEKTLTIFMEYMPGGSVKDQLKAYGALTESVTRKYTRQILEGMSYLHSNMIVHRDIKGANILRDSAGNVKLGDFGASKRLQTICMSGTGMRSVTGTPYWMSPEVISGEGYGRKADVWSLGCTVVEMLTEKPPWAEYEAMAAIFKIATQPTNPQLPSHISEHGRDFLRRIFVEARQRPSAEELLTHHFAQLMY
MYO3B (human), sequence (Q8WXR4 whole entry, looked up): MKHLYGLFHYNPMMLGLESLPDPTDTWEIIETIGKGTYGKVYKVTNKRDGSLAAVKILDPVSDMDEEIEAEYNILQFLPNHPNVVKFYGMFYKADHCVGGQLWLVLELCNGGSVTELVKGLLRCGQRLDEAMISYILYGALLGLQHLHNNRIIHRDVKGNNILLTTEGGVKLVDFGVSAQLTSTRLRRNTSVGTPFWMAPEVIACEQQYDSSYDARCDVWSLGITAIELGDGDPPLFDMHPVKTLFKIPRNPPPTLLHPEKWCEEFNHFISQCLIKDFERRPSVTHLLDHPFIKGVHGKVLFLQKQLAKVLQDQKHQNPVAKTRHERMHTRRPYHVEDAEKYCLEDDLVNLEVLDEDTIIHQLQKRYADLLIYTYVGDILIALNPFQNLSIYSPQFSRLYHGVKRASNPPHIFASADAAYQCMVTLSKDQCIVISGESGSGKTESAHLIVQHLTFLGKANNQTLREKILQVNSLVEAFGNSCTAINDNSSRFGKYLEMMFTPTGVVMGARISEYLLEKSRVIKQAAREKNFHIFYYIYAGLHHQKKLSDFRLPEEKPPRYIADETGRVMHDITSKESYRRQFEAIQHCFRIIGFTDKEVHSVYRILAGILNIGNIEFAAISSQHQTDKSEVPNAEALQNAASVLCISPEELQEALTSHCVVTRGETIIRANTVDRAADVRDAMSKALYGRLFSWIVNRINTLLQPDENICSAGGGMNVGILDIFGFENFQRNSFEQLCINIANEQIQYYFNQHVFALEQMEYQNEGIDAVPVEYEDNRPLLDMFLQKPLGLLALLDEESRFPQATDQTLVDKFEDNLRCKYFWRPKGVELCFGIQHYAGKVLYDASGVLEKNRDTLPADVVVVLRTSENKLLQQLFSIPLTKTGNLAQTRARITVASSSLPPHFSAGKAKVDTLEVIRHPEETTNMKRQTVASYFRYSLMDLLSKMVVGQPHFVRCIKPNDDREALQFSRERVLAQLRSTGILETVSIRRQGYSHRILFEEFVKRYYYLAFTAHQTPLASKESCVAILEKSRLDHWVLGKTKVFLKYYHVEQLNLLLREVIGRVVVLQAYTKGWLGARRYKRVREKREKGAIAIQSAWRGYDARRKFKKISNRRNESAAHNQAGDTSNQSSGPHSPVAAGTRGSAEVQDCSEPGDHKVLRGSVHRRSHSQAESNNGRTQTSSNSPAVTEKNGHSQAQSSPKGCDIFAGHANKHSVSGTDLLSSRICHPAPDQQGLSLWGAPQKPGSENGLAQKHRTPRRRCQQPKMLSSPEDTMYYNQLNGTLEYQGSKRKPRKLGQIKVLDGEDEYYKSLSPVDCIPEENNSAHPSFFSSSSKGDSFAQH
MST1R (human), sequence (Q04912 whole entry, looked up): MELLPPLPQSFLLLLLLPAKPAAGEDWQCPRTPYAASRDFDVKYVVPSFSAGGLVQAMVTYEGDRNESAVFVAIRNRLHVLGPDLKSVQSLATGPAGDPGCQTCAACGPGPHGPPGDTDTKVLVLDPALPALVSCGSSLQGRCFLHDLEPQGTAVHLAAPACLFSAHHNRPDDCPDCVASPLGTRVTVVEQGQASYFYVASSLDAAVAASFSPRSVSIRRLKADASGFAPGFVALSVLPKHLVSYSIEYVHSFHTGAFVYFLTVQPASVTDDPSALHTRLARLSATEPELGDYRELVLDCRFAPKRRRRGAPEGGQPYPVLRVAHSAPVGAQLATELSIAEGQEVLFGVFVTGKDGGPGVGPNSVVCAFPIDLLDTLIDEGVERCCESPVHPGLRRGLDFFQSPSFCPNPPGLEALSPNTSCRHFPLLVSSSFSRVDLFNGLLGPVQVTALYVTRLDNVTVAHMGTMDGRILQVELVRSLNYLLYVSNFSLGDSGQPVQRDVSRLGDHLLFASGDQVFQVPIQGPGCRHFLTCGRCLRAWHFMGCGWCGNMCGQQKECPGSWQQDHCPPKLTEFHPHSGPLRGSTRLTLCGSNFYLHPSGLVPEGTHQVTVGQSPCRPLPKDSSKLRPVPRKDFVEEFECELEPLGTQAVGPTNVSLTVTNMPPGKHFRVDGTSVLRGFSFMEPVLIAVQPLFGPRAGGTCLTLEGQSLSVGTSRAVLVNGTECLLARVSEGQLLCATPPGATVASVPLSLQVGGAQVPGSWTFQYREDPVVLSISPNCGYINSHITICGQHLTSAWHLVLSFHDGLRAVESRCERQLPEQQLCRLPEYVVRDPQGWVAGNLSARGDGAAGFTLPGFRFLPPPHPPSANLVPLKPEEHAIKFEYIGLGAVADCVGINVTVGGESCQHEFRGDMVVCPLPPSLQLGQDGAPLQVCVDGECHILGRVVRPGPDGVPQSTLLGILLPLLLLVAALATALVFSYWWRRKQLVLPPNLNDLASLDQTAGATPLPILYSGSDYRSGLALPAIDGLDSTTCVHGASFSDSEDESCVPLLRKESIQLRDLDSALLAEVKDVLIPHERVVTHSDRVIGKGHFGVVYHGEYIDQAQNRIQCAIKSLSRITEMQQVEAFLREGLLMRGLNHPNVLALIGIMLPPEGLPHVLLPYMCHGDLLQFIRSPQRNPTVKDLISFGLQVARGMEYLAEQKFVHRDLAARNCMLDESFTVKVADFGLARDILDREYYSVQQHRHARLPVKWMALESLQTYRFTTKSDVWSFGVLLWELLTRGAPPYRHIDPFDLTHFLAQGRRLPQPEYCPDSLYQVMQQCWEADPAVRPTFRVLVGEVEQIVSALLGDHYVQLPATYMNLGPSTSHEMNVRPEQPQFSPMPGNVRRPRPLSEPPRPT
NEK11 (human), sequence (Q8NG66 whole entry, looked up): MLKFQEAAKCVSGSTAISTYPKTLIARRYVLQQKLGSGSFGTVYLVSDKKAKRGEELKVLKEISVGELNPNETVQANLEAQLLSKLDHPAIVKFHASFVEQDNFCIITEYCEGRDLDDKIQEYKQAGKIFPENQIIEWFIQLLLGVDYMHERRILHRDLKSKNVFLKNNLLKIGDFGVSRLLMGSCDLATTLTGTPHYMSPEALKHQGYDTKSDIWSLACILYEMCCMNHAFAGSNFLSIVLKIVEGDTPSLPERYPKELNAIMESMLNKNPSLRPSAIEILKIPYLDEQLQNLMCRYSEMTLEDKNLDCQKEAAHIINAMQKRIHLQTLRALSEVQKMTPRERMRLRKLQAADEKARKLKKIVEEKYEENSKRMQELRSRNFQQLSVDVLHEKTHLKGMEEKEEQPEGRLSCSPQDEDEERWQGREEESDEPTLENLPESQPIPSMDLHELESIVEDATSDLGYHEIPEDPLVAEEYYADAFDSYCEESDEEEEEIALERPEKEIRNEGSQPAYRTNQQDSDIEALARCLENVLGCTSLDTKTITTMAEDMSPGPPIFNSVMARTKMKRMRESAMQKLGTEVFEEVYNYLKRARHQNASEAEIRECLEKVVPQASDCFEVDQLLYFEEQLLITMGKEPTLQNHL
PTK6 (human), sequence (Q13882 whole entry, looked up): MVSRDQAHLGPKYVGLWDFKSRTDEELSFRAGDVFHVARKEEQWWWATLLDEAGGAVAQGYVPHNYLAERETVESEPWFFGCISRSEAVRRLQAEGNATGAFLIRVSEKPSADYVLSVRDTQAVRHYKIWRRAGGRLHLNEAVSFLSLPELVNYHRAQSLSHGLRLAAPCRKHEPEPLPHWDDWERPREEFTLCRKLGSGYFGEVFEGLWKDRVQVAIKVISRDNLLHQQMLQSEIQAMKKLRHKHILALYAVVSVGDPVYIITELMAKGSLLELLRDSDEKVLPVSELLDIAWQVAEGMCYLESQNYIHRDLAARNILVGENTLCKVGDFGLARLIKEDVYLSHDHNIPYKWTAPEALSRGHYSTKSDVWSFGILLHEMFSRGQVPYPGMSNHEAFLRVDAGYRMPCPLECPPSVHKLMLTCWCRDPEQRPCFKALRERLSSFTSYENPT

For `Cc1cc(NC(=O)c2cccc(NC(=O)/C=C/CN(C)C)c2)ccc1Nc1nccc(-c2cccnc2)n1`, the kinase still bound, per cent of control ([1]; compound 1.0 µM) was 100%, the kinase still bound, per cent of control ([2]; compound 1.0 µM) was 3.5% and the kinase still bound, per cent of control ([3]; compound 1.0 µM) was 100%. The kinase still bound, per cent of control ([4]; compound 1.0 µM) was 93%, the kinase still bound, per cent of control ([5]; compound 1.0 µM) was 93% and the kinase still bound, per cent of control ([6]; compound 1.0 µM) was 100%. It also gave a kinase still bound, per cent of control ([7]; compound 1.0 µM) of 100%, a kinase still bound, per cent of control ([8]; compound 1.0 µM) of 54% and a kinase still bound, per cent of control ([9]; compound 1.0 µM) of 100%. It also gave a kinase still bound, per cent of control ([10]; compound 1.0 µM) of 89%, a kinase still bound, per cent of control ([11]; compound 1.0 µM) of 100% and a kinase still bound, per cent of control ([12]; compound 1.0 µM) of 99%. For the same compound, the kinase still bound, per cent of control ([13]; compound 1.0 µM) was 97%, the kinase still bound, per cent of control ([14]; compound 1.0 µM) was 82% and the kinase still bound, per cent of control ([15]; compound 1.0 µM) was 100%. The kinase still bound, per cent of control ([16]; compound 1.0 µM) was 81%, the kinase still bound, per cent of control ([17]; compound 1.0 µM) was 91% and the kinase still bound, per cent of control ([18]; compound 1.0 µM) was 100%. The kinase still bound, per cent of control ([19]; compound 1.0 µM) was 56%, the kinase still bound, per cent of control ([20]; compound 1.0 µM) was 95% and the kinase still bound, per cent of control ([21]; compound 1.0 µM) was 82%. The kinase still bound, per cent of control ([22]; compound 1.0 µM) was 62%, the kinase still bound, per cent of control ([23]; compound 1.0 µM) was 100% and the kinase still bound, per cent of control ([24]; compound 1.0 µM) was 100%. For the same compound, the kinase still bound, per cent of control ([25]; compound 1.0 µM) was 93%, the kinase still bound, per cent of control ([26]; compound 1.0 µM) was 58% and the kinase still bound, per cent of control ([27]; compound 1.0 µM) was 100%. It also gave a kinase still bound, per cent of control ([28]; compound 1.0 µM) of 87%, a kinase still bound, per cent of control ([29]; compound 1.0 µM) of 77% and a kinase still bound, per cent of control ([30]; compound 1.0 µM) of 100%. It also gave a kinase still bound, per cent of control ([31]; compound 1.0 µM) of 100%, a kinase still bound, per cent of control ([32]; compound 1.0 µM) of 100% and a kinase still bound, per cent of control ([33]; compound 1.0 µM) of 100%. It also gave a kinase still bound, per cent of control ([34]; compound 1.0 µM) of 100%, a kinase still bound, per cent of control ([35]; compound 1.0 µM) of 99% and a kinase still bound, per cent of control ([36]; compound 1.0 µM) of 100%. The kinase still bound, per cent of control ([37]; compound 1.0 µM) was 95%, the kinase still bound, per cent of control ([38]; compound 1.0 µM) was 100% and the kinase still bound, per cent of control ([39]; compound 1.0 µM) was 100%. For the same compound, the kinase still bound, per cent of control ([40]; compound 1.0 µM) was 50%, the kinase still bound, per cent of control ([41]; compound 1.0 µM) was 67% and the kinase still bound, per cent of control ([42]; compound 1.0 µM) was 100%. It also gave a kinase still bound, per cent of control ([43]; compound 1.0 µM) of 94%.
Compound `Cc1ccc(NC(=O)c2ccc(NC(=O)/C=C/CN(C)C)cc2)cc1Nc1nccc(-c2cccnc2)n1` has a kinase still bound, per cent of control ([1]; compound 10.0 µM) of 100%, a Kd [2] of 30 nM and a kinase still bound, per cent of control ([2]; compound 10.0 µM) of 0%. It also gave a kinase still bound, per cent of control ([3]; compound 10.0 µM) of 57%, a kinase still bound, per cent of control ([4]; compound 10.0 µM) of 0.15% and a kinase still bound, per cent of control ([5]; compound 10.0 µM) of 73%. For the same compound, the kinase still bound, per cent of control ([6]; compound 10.0 µM) was 76%, the kinase still bound, per cent of control ([7]; compound 10.0 µM) was 82% and the kinase still bound, per cent of control ([8]; compound 10.0 µM) was 38%. The kinase still bound, per cent of control ([9]; compound 10.0 µM) was 100%, the kinase still bound, per cent of control ([10]; compound 10.0 µM) was 100% and the kinase still bound, per cent of control ([11]; compound 10.0 µM) was 100%. It also gave a kinase still bound, per cent of control ([12]; compound 10.0 µM) of 69%, a kinase still bound, per cent of control ([13]; compound 10.0 µM) of 89% and a kinase still bound, per cent of control ([14]; compound 10.0 µM) of 100%. It also gave a kinase still bound, per cent of control ([15]; compound 10.0 µM) of 100%, a kinase still bound, per cent of control ([16]; compound 10.0 µM) of 56% and a kinase still bound, per cent of control ([17]; compound 10.0 µM) of 5.1%. The kinase still bound, per cent of control ([18]; compound 10.0 µM) was 85%, the kinase still bound, per cent of control ([19]; compound 10.0 µM) was 66% and the kinase still bound, per cent of control ([20]; compound 10.0 µM) was 100%. For the same compound, the kinase still bound, per cent of control ([21]; compound 10.0 µM) was 66%, the kinase still bound, per cent of control ([22]; compound 10.0 µM) was 32% and the kinase still bound, per cent of control ([23]; compound 10.0 µM) was 86%. It also gave a kinase still bound, per cent of control ([24]; compound 10.0 µM) of 93%, a kinase still bound, per cent of control ([25]; compound 10.0 µM) of 92% and a kinase still bound, per cent of control ([26]; compound 10.0 µM) of 33%. It also gave a kinase still bound, per cent of control ([27]; compound 10.0 µM) of 81%, a kinase still bound, per cent of control ([28]; compound 10.0 µM) of 95% and a kinase still bound, per cent of control ([29]; compound 10.0 µM) of 82%. The kinase still bound, per cent of control ([30]; compound 10.0 µM) was 100%, the kinase still bound, per cent of control ([31]; compound 10.0 µM) was 24% and the kinase still bound, per cent of control ([32]; compound 10.0 µM) was 85%. It also gave a kinase still bound, per cent of control ([33]; compound 10.0 µM) of 45%, a kinase still bound, per cent of control ([34]; compound 10.0 µM) of 92% and a kinase still bound, per cent of control ([35]; compound 10.0 µM) of 78%. For the same compound, the kinase still bound, per cent of control ([36]; compound 10.0 µM) was 66%, the kinase still bound, per cent of control ([37]; compound 10.0 µM) was 81% and the kinase still bound, per cent of control ([38]; compound 10.0 µM) was 91%. It also gave a kinase still bound, per cent of control ([39]; compound 10.0 µM) of 100%, a kinase still bound, per cent of control ([40]; compound 10.0 µM) of 41% and a kinase still bound, per cent of control ([41]; compound 10.0 µM) of 48%. The kinase still bound, per cent of control ([42]; compound 10.0 µM) was 89% and the kinase still bound, per cent of control ([43]; compound 10.0 µM) was 100%.
`CN(C)C/C=C/C(=O)Nc1cccc(C(=O)Nc2ccc(Nc3nccc(-c4c(-c5ccccc5)nn5ccccc45)n3)cc2)c1` was tested, and the kinase still bound, per cent of control ([1]; compound 1.0 µM) was 28%, the kinase still bound, per cent of control ([2]; compound 1.0 µM) was 0.15% and the kinase still bound, per cent of control ([3]; compound 1.0 µM) was 0.8%. For the same compound, the kinase still bound, per cent of control ([4]; compound 1.0 µM) was 0%, the kinase still bound, per cent of control ([5]; compound 1.0 µM) was 77% and the kinase still bound, per cent of control ([6]; compound 1.0 µM) was 0%. It also gave a kinase still bound, per cent of control ([7]; compound 1.0 µM) of 5.1%, a kinase still bound, per cent of control ([8]; compound 1.0 µM) of 33% and a kinase still bound, per cent of control ([9]; compound 1.0 µM) of 100%. It also gave a kinase still bound, per cent of control ([10]; compound 1.0 µM) of 97%, a kinase still bound, per cent of control ([11]; compound 1.0 µM) of 100% and a kinase still bound, per cent of control ([12]; compound 1.0 µM) of 100%. The kinase still bound, per cent of control ([13]; compound 1.0 µM) was 99%, the kinase still bound, per cent of control ([14]; compound 1.0 µM) was 92% and the kinase still bound, per cent of control ([15]; compound 1.0 µM) was 100%. The kinase still bound, per cent of control ([16]; compound 1.0 µM) was 7%, the kinase still bound, per cent of control ([17]; compound 1.0 µM) was 79% and the kinase still bound, per cent of control ([18]; compound 1.0 µM) was 82%. For the same compound, the kinase still bound, per cent of control ([19]; compound 1.0 µM) was 94%, the kinase still bound, per cent of control ([20]; compound 1.0 µM) was 100% and the kinase still bound, per cent of control ([21]; compound 1.0 µM) was 13%. For the same compound, the kinase still bound, per cent of control ([22]; compound 1.0 µM) was 100%, the kinase still bound, per cent of control ([23]; compound 1.0 µM) was 0.6% and the kinase still bound, per cent of control ([24]; compound 1.0 µM) was 27%. It also gave a kinase still bound, per cent of control ([25]; compound 1.0 µM) of 4%, a kinase still bound, per cent of control ([26]; compound 1.0 µM) of 54% and a kinase still bound, per cent of control ([27]; compound 1.0 µM) of 49%. It also gave a kinase still bound, per cent of control ([28]; compound 1.0 µM) of 30%, a kinase still bound, per cent of control ([29]; compound 1.0 µM) of 97% and a kinase still bound, per cent of control ([30]; compound 1.0 µM) of 100%. It also gave a kinase still bound, per cent of control ([31]; compound 1.0 µM) of 95%, a kinase still bound, per cent of control ([32]; compound 1.0 µM) of 89% and a kinase still bound, per cent of control ([33]; compound 1.0 µM) of 100%. The kinase still bound, per cent of control ([34]; compound 1.0 µM) was 11%, the kinase still bound, per cent of control ([35]; compound 1.0 µM) was 100% and the kinase still bound, per cent of control ([36]; compound 1.0 µM) was 2.1%. For the same compound, the kinase still bound, per cent of control ([37]; compound 1.0 µM) was 68%, the kinase still bound, per cent of control ([38]; compound 1.0 µM) was 9.3% and the kinase still bound, per cent of control ([39]; compound 1.0 µM) was 100%. The kinase still bound, per cent of control ([40]; compound 1.0 µM) was 72%, the kinase still bound, per cent of control ([41]; compound 1.0 µM) was 100% and the kinase still bound, per cent of control ([42]; compound 1.0 µM) was 77%. It also gave a kinase still bound, per cent of control ([43]; compound 1.0 µM) of 100%.
